Assay results from the NIST ThermoML archive (doi:10.1016/j.fluid.2014.08.002).
Numbers after ± are expanded uncertainties.

details: 298.15 K; 101.3 kPa; Liquid; Vibrating tube method

| mass density [kg/m3] | Structure (SMILES) |
| --- | --- |
| 944.2 ± 0.3 | CC1(C)OCCO1 [2,2-dimethyl-1,3-dioxolane] |
| 789.5 ± 0.2 | CCO [ethanol] |
| 683.8 ± 0.3 | CCCCCCC [heptane] |

| Structure (SMILES) | mass density [kg/m3] |
| --- | --- |
| Cc1ccccc1 [toluene] | 866.9 ± 0.2 |
